Key:
[1] = biological target: m4 receptors (Homo sapiens, UniProt P08173); type: cell-based; details: CHO m4 cells treated with pertussis toxin
[2] = biological target: muscarinic cholinergic receptors; assay: 3H-oxotremorine-M binding study (oxotremorine-M versus N-methylscopolamine, Freedman et al.); details: inhibition of binding of 3H-oxotremorine-M; read-out: inhibition costant (Ki)
[3] = biological target: muscarinic cholinergic receptors; details: 3H-QNB binding assay

m4 receptors, sequence (P08173 whole entry): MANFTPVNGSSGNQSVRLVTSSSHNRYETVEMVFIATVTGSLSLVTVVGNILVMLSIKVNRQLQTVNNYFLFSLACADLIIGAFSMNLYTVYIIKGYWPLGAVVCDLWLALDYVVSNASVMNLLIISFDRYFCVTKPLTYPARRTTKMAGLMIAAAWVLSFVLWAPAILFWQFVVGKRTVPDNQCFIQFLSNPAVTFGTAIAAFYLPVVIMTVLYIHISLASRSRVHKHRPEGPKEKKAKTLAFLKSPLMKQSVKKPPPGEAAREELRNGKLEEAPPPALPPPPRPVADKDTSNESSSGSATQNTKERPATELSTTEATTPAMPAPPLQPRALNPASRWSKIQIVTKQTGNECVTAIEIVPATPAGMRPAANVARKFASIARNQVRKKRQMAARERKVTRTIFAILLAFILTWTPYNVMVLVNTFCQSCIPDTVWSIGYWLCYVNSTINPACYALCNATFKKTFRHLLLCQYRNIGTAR

SMILES: CCCCCCOc1nsnc1C1=CCCN(C)C1 [Xanomeline, 3-(4-hexyloxy-1,2,5-thiadiazol-3-yl)-1,2,5,6-tetrahydro-1-methylpyridine]
- formation of cAMP [1]: efficaciously and potently stimulated the formation of cAMP
- Ki [2]: 0.002 µM
- IC50 [3]: < 1000 µM

Reference: patent EP0821959A2 (priority 1996, dated 1998)
